The structures appear in SMILES notation. A value given as a limit tells only on which side of the number the result lay.

This assay deals with T1, M4 receptor (Homo sapiens, UniProt P08173).
T1 construct: expressed in transfected cells; host or cells: CHO (M4-CHO cells)
T1 sequence (P08173 1-479): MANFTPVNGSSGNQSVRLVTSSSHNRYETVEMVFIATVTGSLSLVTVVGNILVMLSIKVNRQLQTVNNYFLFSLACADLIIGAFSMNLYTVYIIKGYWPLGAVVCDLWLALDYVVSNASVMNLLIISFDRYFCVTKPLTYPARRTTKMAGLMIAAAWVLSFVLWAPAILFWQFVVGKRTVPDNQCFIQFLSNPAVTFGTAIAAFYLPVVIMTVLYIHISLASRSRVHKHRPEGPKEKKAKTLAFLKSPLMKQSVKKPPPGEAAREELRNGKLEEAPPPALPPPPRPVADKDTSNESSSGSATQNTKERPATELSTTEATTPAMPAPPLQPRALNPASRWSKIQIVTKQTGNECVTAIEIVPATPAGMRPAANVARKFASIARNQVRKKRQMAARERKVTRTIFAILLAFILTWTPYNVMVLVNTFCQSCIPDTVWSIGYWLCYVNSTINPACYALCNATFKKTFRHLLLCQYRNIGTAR
The experiment in a line: PAM agonistic activity of compound on M4 receptor (FLIPR Calcium 6 assay in M4-CHO cells). The class given is cell-based. The following applies: with acetylcholine (Ach), final concentration 3 nM. Here is the method: • 1). Cell plating: M4-CHO cells were digested, collected, and resuspended. After cell counting, the cell suspension was seeded into a 384-well cell plate at a density of: 1.2 × 10^4 cells/25 µL/well. The cell plate was then cultured in a 37°C, 5% CO2 incubator for about 16-20 h. • 2). Day 2: Assay Buffer was prepared according to the instructions of the FLIPR Calcium 6 Assay Kit. Component A (20×) was thawed to room temperature and diluted with the Assay Buffer to prepare a loading buffer (1×), which was stored at room temperature until use. • 3). The culture medium was removed from the cell plate. 40 µL of the loading buffer (1×) was quickly added to each well. The cell plate was then centrifuged and incubated at 37°C in the dark for 120 min. • 4). Working solutions of the positive control compound and the test compounds were prepared. An acetylcholine (Ach) agonist compound solution was prepared (final concentration: 3 nM). The PAM compound and the Ach agonist solution were mixed at a 1 : 1 ratio, and the mixture was transferred into a 384-well compound source plate at 20 µL per well. • 5). The cell plate, the compound source plate, and the pipette tips were placed into the corresponding positions within the FLIPR instrument. 10 µL of the diluted compound from step 4 was added into each experimental well using the FLIPR Tetra. Data was collected at the wavelength of 515 nm-575 nm. • 6). The signal values were plotted against the compound concentrations. Nonlinear regression analysis was performed using GraphPad Prism software for curve fitting and EC50 calculation.
The experimental results are shown in Table 1, where A represents EC50 < […]; B represents 100 nM ≤ EC50 < 500 nM, and C represents 500 nM ≤ EC50. Table 1. Agonistic activity of compounds on M4 receptor
Regarding `Cc1cc(C)c2c(n1)CN(C(=O)CC1CN(c3ccc4c(c3)C(F)C(F)C4)C1)C2` (racemic) [Compound 12, isomer 1], the EC50 was less than 0.1 µM. On to `Cc1cc(C)c2c(n1)CN(C(=O)CC1CN(c3ccc4c(c3)C(F)C(F)C4)C1)C2` (racemic) [Compound 12, isomer 2], for which the concentration giving a half-maximal response (EC50) is less than 0.1 µM. Take `Cc1cc(C2CCOC2)nc2c1CN(C(=O)CC1CN(c3ccnc(C(F)(F)F)c3)C1)C2` (single isomer, unassigned) [Compound 152]: the EC50 was less than 0.1 µM. Take `Cc1cc(C2CCOC2)nc2c1CN(C(=O)CC1CN(c3ccnc(C(F)(F)F)c3)C1)C2` (single isomer, unassigned) [Compound 153]: the EC50 was less than 0.1 µM. Consider `Cc1cc(C2CCOC2)nc2c1CN(C(=O)CC1CN(c3ccnc(OC4CC(F)(F)C4)c3)C1)C2` (single isomer, unassigned) [Compound 154], for which the EC50 was less than 0.1 µM. Turning to `Cc1cc(C2CCOC2)nc2c1CN(C(=O)CC1CN(c3ccnc(OC4CC(F)(F)C4)c3)C1)C2` (single isomer, unassigned) [Compound 155], the EC50 was less than 0.1 µM. The value for `Cc1cc(-c2cnn(C)c2)nc2c1CN(C(=O)CC1CN(c3ccnc(OC4CC(F)C4)c3)C1)C2` (single isomer, unassigned) [Compound 156] was less than 0.1 µM. As to `Cc1ccn(-c2cc(N3CC(CC(=O)N4Cc5nc(C6CCOC6)cc(C)c5C4)C3)ccn2)n1` (single isomer, unassigned) [Compound 185], the EC50 is less than 0.1 µM.

On to `Cc1ccn(-c2cc(N3CC(CC(=O)N4Cc5nc(C6CCOC6)cc(C)c5C4)C3)ccn2)n1` (single isomer, unassigned) [Compound 186], for which the EC50 was less than 0.1 µM. Turning to `Cc1cc(C2CCOC2)nc2c1CN(C(=O)CC1CN(c3ccnc(-n4ccc(F)n4)c3)C1)C2` (single isomer, unassigned) [Compound 187], the EC50 was less than 0.1 µM. With `Cc1cc(C)c2c(n1)CN(C(=O)CC1CN(c3ccnc(-c4ccsc4)c3)C1)C2` [Compound 1], the EC50 was less than 0.1 µM. Under `Cc1cc(C)c2c(n1)CN(C(=O)CC1CN(c3ccnc(-c4cnn(C(F)F)c4)c3)C1)C2` [Compound 5] stands less than 0.1 µM; under `Cc1cc(C)c2c(n1)CN(C(=O)CC1CN(c3ccnc(-c4cc(C(F)(F)F)nn4C)c3)C1)C2` [Compound 6], less than 0.1 µM. The value for `Cc1cc(C)c2c(n1)CN(C(=O)CC1CN(c3ccnc(-c4cnn(C)c4)c3)C1)C2` [Compound 7] was less than 0.1 µM; that for `Cc1cc(C)c2c(n1)CN(C(=O)CC1CN(c3ccnc(-c4cc(C(F)(F)F)n(C)n4)c3)C1)C2` [Compound 14] was less than 0.1 µM; that for `Cc1cc(C)c2c(n1)CN(C(=O)CC1CN(c3ccnc(-c4ccnc(C(F)(F)F)c4)c3)C1)C2` [Compound 16] was less than 0.1 µM. Consider `Cc1cc(C)c2c(n1)CN(C(=O)CC1CN(c3ccnc(-c4cnsc4)c3)C1)C2` [Compound 21], for which the EC50 was less than 0.1 µM. The value for `Cc1cc(C)c2c(n1)CN(C(=O)CC1CN(c3ccnc(-c4ccnn4C)c3)C1)C2` [Compound 22] was less than 0.1 µM; that for `Cc1csc(-c2cc(N3CC(CC(=O)N4Cc5nc(C)cc(C)c5C4)C3)ccn2)c1` [Compound 23] was less than 0.1 µM. Turning to `Cc1cc(C)c2c(n1)CN(C(=O)CC1CN(c3ccnc(NC(=O)C4CC4)c3)C1)C2` [Compound 24], the EC50 is less than 0.1 µM. In the case of `Cc1cc(C)c2c(n1)CN(C(=O)CC1CN(c3ccnc(OC4CC(F)(F)C4)c3)C1)C2` [Compound 25], the EC50 was less than 0.1 µM. Turning to `Cc1cc(C)c2c(n1)CN(C(=O)CC1CN(c3ccnc(-n4nccc4C)c3)C1)C2` [Compound 26], the EC50 is less than 0.1 µM. Turning to `Cc1cc(C)c2c(n1)CN(C(=O)CC1CN(c3ccnc(-c4cnoc4)c3)C1)C2` [Compound 27], the EC50 was less than 0.1 µM. The value for `Cc1cc(C)c2c(n1)CN(C(=O)CC1CN(c3ccnc(-n4nc(C)cc4C)c3)C1)C2` [Compound 30] was less than 0.1 µM. On to `Cc1cc(C)c2c(n1)CN(C(=O)CC1CN(c3ccnc(Oc4cnn(C(F)F)c4)c3)C1)C2` [Compound 37], for which the EC50 is less than 0.1 µM.

With `Cc1cc(C)c2c(n1)CN(C(=O)CC1CN(c3ccnc(C(=O)NC4CC4)c3)C1)C2` [Compound 38], the EC50 was less than 0.1 µM. With `Cc1cc(C)c2c(n1)CN(C(=O)CC1CN(c3ccnc(-c4noc(C(F)(F)F)n4)c3)C1)C2` [Compound 39], the EC50 is less than 0.1 µM.

Turning to `Cc1cnn(-c2cc(N3CC(CC(=O)N4Cc5nc(C)cc(C)c5C4)C3)ccn2)c1` [Compound 40], the EC50 was less than 0.1 µM. With `Cc1cc(C)c2c(n1)CN(C(=O)CC1CN(c3ccnc(-n4c(C)nnc4C(F)(F)F)c3)C1)C2` [Compound 43], the EC50 was less than 0.1 µM. The value for `Cc1cc(C)c2c(n1)CN(C(=O)CC1CN(c3ccnc(-c4nc(C(F)(F)F)nn4C)c3)C1)C2` [Compound 44] was less than 0.1 µM; that for `Cc1cc(C)c2c(n1)CN(C(=O)CC1CN(c3ccnc(-n4cc(C(F)(F)F)nc4C)c3)C1)C2` [Compound 46] was less than 0.1 µM. Under `Cc1cc(C)c2c(n1)CN(C(=O)CC1CN(c3ccnc(-n4cnc(C(F)(F)F)n4)c3)C1)C2` [Compound 47] stands less than 0.1 µM; under `Cc1cc(C)c2c(n1)CN(C(=O)CC1CN(c3cc(-n4ccc(C)n4)ncn3)C1)C2` [Compound 48], less than 0.1 µM. Under `Cc1cc(C)c2c(n1)CN(C(=O)CC1CN(c3ccnc(OC4CC4)c3)C1)C2` [Compound 49] stands less than 0.1 µM; under `Cc1ccn(-c2cc(N3CC(CC(=O)N4Cc5nc(C)cc(C)c5C4)C3)ccn2)c1` [Compound 50], less than 0.1 µM. As for `Cc1cc(C)c2c(n1)CN(C(=O)CC1CN(c3ccnc(O[C@@H]4CCOC4)c3)C1)C2` [Compound 51], the 50% effective concentration (EC50) is less than 0.1 µM. Under `Cc1cc(C)c2c(n1)CN(C(=O)CC1CN(c3ccnc(O[C@H]4CCOC4)c3)C1)C2` [Compound 52] stands less than 0.1 µM; under `Cc1cc(C)c2c(n1)CN(C(=O)CC1CN(c3ccnc(Oc4cnn(C)c4)c3)C1)C2` [Compound 53], less than 0.1 µM; under `Cc1cc(C)c2c(n1)CN(C(=O)CC1CN(c3ccnc(-n4cnc(C)n4)c3)C1)C2` [Compound 54], less than 0.1 µM. For `Cc1cc(C)c2c(n1)CN(C(=O)CC1CN(c3ccnc(-n4cc(C)c(C)n4)c3)C1)C2` [Compound 55], the EC50 is less than 0.1 µM. Under `Cc1cc(C)c2c(n1)CN(C(=O)CC1CN(c3ccnc(-n4cccn4)c3)C1)C2` [Compound 56] stands less than 0.1 µM; under `Cc1cc(C)c2c(n1)CN(C(=O)CC1CN(c3ccnc(-n4cncn4)c3)C1)C2` [Compound 58], less than 0.1 µM. Under `Cc1nc2c(c(N3CCC3)n1)CN(C(=O)CC1CN(c3ccnc(-n4nccc4C)c3)C1)C2` [Compound 62] stands less than 0.1 µM; under `Cc1cc(C)c2c(n1)CN(C(=O)CC1CN(c3ccnc(-c4ccc5ccnn5c4)c3)C1)C2` [Compound 63], less than 0.1 µM. Under `Cc1cc(C)c2c(n1)CN(C(=O)CC1CN(c3ccnc(NC4CC(F)(F)C4)c3)C1)C2` [Compound 67] stands less than 0.1 µM; under `Cc1cc(C)c2c(n1)CN(C(=O)CC1CN(c3ccnc(-n4cc(C)nc4C)c3)C1)C2` [Compound 75], less than 0.1 µM. As to `Cc1cc(C)c2c(n1)CN(C(=O)CC1CN(c3ccnc(-n4ccc(F)n4)c3)C1)C2` [Compound 76], the EC50 was less than 0.1 µM. For `Cc1coc(-c2cc(N3CC(CC(=O)N4Cc5nc(C)cc(C)c5C4)C3)ccn2)n1` [Compound 78], the EC50 is less than 0.1 µM.

Consider `Cc1cc(CO)nc2c1CN(C(=O)CC1CN(c3ccnc(OC4CC(F)(F)C4)c3)C1)C2` [Compound 81], for which the EC50 is less than 0.1 µM.

Regarding `Cc1cc(C)c2c(n1)CN(C(=O)CC1CN(c3ccnc(OC4CCC(F)(F)C4)c3)C1)C2` (stereo not drawn) [Compound 83], the EC50 is less than 0.1 µM. The value for `Cc1ccn(-c2cc(N3CC(CC(=O)N4Cc5nc(CO)cc(C)c5C4)C3)ccn2)n1` [Compound 84] was less than 0.1 µM; that for `Cc1ccn(-c2cc(N3CC(CC(=O)N4Cc5nc(COC6COC6)cc(C)c5C4)C3)ccn2)n1` [Compound 85] was less than 0.1 µM; that for `Cc1ccn(-c2cc(N3CC(CC(=O)N4Cc5nc(C)c6c(c5C4)CCC6)C3)ccn2)n1` [Compound 87] was less than 0.1 µM.

As for `Cc1ccn(-c2cc(N3CC(CC(=O)N4Cc5nc(C)nc(N(C)C)c5C4)C3)ccn2)n1` [Compound 90], the EC50 is less than 0.1 µM.

For orientation: EC50 means the concentration at which the effect is half-maximal.

These data come from EP4733303A1, “MUSCARINIC M4 RECEPTOR AGONIST AND USE THEREOF” (Haisco Pharmaceutical Group Co., Ltd., priority 2023, dated 2024).
